Measured values taken from ChEMBL document CHEMBL1139109, “Further studies on the binding of N1-substituted tryptamines at h5-HT6 receptors” (Bioorg Med Chem Lett, 2007).

target: 5-hydroxytryptamine receptor 6 (Homo sapiens, UniProt P50406); experiment: Displacement of [3H] LSD from human 5HT6 receptor expressed in HEK293 cells; type: cell-based
Sequence (P50406 whole entry): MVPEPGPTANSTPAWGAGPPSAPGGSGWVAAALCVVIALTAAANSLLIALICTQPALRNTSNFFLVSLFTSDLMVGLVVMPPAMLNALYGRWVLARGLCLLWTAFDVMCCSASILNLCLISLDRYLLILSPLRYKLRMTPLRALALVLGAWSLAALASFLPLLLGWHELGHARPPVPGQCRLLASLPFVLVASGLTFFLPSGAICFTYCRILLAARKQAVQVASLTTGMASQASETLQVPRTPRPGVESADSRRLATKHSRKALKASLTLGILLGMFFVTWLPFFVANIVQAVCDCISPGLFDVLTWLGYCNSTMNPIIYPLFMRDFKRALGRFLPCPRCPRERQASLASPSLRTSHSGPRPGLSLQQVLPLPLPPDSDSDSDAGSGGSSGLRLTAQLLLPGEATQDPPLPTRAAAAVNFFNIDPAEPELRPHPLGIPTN

Compound	Ki
CCCS(=O)(=O)n1cc(CCN(C)C)c2ccccc21	280 nM
COc1ccc(Cn2cc(CCN(C)C)c3ccccc32)cc1	132 nM
Nc1ccc(Cn2ccc3ccccc32)cc1	8200 nM
COc1ccc(S(=O)(=O)n2cc(CCN(C)C)c3ccccc32)cc1	13 nM
CN(C)CCc1cn(S(=O)(=O)c2ccc(C(F)(F)F)cc2)c2ccccc12	1.9 nM
CCCCCCCCS(=O)(=O)n1cc(CCN(C)C)c2ccccc21	440 nM
CN(C)CCc1cn(S(=O)(=O)C2CCCCC2)c2ccccc12	210 nM
CN(C)CCc1cn(Cc2ccc(N)cc2)c2ccccc12	44 nM
CN(C)CCc1cn(Cc2ccc(C(F)(F)F)cc2)c2ccccc12	445 nM
Cc1ccc(S(=O)(=O)n2cc(CCN(C)C)c3ccccc32)cc1	2.5 nM
CN(C)CCc1cn(Cc2ccc(Cl)cc2)c2ccccc12	20 nM
CCCCCS(=O)(=O)n1cc(CCN(C)C)c2ccccc21	220 nM
Nc1ccc(S(=O)(=O)n2c3c(c4ccccc42)CCCC3)cc1	29 nM
CN(C)CC1CCCc2c1c1ccccc1n2S(=O)(=O)c1ccccc1 (stereo not given)	1.5 nM
CC(C)S(=O)(=O)n1cc(CCN(C)C)c2ccccc21	590 nM
Cc1ccc(Cn2cc(CCN(C)C)c3ccccc32)cc1	29 nM
Nc1ccc(Cn2c3c(c4ccccc42)CCCC3)cc1	6000 nM
CN(C)CCc1cn(S(=O)(=O)c2ccc(Cl)cc2)c2ccccc12	94 nM
CCCCS(=O)(=O)n1cc(CCN(C)C)c2ccccc21	135 nM
CN(C)CC1CCCc2c1c1ccccc1n2Cc1ccccc1 (stereo not given)	136 nM
